Measurements: article PMC12371494, “Discovery of YTHDF2 Ligands by Fragment-Based Design” (ACS Bio & Med Chem Au, 2025)
Several values for one entry are separate records, joined by “and”; a condition that tells them apart may be missing. Equal values may be shown once.

Tests used:
YTHDC2 = biological target: T1, YTHDC2 (Homo sapiens, UniProt Q9H6S0); experiment: DNA-fluorescence polarization (FP) competition assay, DC2; type: binding; conditions: for Kd: Cheng-Prusoff from FP IC50, probe Kd 7 nM, two biological replicates; for Selectivity DF2 over DC2 (Kd ratio DC2/DF2): FP Kd values
T1 construct: YTH domain of YTHDC2 (residues 1285–1424, cloned into the pGEX-6P-1 vector); made in house; host or cells: Rosetta (DE3) cells (E. coli)
T1 sequence (Q9H6S0 1285-1424): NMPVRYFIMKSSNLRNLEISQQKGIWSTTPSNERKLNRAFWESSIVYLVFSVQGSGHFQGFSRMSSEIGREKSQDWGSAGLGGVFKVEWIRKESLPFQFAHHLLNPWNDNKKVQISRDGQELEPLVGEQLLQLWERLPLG
Description: The binding affinity for DC1 could not be evaluated by HTRF because of interference of the compounds with the assay, which has a smaller assay window when performed with DC1 compared to the DF proteins. Thus, the FP assay was used to evaluate binding to DC1 and DC2.
The N-terminally GST-tagged YTH domain of YTHDC2 (residues 1285–1424, cloned into the pGEX-6P-1 vector) was overexpressed in Rosetta (DE3) cells grown overnight at 20 °C following induction with 0.4 mM isopropyl-β-D-thiogalactopyranoside (IPTG) at an OD600 of 0.8. The cells were harvested and resuspended in a lysis buffer containing 100 mM Tris–HCl (pH 8.0) and 500 mM NaCl. After cell lysis, the lysate was clarified by centrifugation at 48,000g for 1 h, and the soluble proteins were loaded onto a column packed with Glutathione Sepharose 4B (GE Healthcare), then eluted with 20 mM reduced glutathione in lysis buffer. Finally, a size-exclusion chromatography step (HiLoad 16/600 Superdex 200 pg column, GE Healthcare) was performed to further purify the protein in 20 mM Tris–HCl (pH 7.4) and 150 mM NaCl.
For fluorescence polarization (FP) experiments, a 5′-fluorescein-labeled m^6A-DNA probe (5′-FAM-[…](m6A)-CTAAGCT-3′) was synthesized by Microsynth AG.
The final concentration of the fluorescein-labeled DNA was kept constant at 3 nM. For YTHDC2 measurements, the protein concentration was set to 25 nM, while for YTHDF2 measurements, it was set to 10 nM, and for YTHDC1, it was set at 15 nM. The compound concentration was serially diluted to obtain the dose–response curve. The competition experiments were conducted in a final volume of 20 μL in a buffer containing 20 mM Tris–HCl (pH 7.4), 150 mM NaCl, and 0.01% bovine serum albumin (BSA), using a 384-well black flat-bottomed microplate (Corning 3575).
After incubating the mixture for 1 h, the anisotropy values were measured using a Tecan SPARK plate reader with 485/20 nm excitation and 535/25 nm emission polarization filters, suitable for fluorescein, at 25 °C. To obtain the equilibrium dissociation constant (K d), the IC50 values were first derived by fitting a dose–response curve to the data using nonlinear regression analysis in GraphPad Prism. These IC50 values were then converted to K d by using the Cheng–Prusoff equation: Kd=IC50/1+[L]/Kdprobe
IC50 is the observed value from FP assay, [L] is the probe concentration used, and K d ^probe is the binding affinity of probe for the target.

GST-YTHDF2 = biological target: T2, GST-YTHDF2 (Homo sapiens, UniProt Q9Y5A9); experiment: HTRF-based binding assay, competition with m6A-oligoRNA, DF2; conditions: for Single-dose residual signal at 100 µM, DF2: HTRF, 100 µM compound, normalized; for LE (ligand efficiency, DF2): LE = -RT ln IC50/HAC from HTRF IC50; for IC50: dose-response, competitor m6A-oligoRNA, read-out: DF2 IC50 (HTRF assay); for Improvement of HTRF IC50 compared to fragment 14: HTRF DF2
T2 construct: made in house
T2 sequence (Q9Y5A9 1-579): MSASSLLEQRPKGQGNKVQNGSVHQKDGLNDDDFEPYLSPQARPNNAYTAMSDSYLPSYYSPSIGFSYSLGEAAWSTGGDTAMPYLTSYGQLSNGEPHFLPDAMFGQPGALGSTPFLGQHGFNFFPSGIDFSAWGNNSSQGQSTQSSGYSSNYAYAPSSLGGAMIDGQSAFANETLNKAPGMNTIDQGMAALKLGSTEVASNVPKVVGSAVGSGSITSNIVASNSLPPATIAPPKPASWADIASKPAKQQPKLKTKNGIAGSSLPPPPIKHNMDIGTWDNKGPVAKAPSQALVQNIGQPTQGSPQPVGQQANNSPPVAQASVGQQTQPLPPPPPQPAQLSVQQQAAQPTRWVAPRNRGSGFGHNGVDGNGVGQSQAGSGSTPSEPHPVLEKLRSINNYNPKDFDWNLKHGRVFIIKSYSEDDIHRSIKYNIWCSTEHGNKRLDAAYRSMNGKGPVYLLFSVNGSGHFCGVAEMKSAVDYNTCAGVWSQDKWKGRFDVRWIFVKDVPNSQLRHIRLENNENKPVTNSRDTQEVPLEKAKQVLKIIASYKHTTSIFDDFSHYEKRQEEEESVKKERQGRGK

GST-YTHDF3 = biological target: T3, GST-YTHDF3 (Homo sapiens, UniProt Q7Z739); experiment: HTRF-based binding assay, DF3; conditions: for Single-dose residual signal at 100 µM, DF3: 100 µM compound, normalized; for IC50: dose-response
T3 construct: made in house
T3 sequence (Q7Z739 1-585): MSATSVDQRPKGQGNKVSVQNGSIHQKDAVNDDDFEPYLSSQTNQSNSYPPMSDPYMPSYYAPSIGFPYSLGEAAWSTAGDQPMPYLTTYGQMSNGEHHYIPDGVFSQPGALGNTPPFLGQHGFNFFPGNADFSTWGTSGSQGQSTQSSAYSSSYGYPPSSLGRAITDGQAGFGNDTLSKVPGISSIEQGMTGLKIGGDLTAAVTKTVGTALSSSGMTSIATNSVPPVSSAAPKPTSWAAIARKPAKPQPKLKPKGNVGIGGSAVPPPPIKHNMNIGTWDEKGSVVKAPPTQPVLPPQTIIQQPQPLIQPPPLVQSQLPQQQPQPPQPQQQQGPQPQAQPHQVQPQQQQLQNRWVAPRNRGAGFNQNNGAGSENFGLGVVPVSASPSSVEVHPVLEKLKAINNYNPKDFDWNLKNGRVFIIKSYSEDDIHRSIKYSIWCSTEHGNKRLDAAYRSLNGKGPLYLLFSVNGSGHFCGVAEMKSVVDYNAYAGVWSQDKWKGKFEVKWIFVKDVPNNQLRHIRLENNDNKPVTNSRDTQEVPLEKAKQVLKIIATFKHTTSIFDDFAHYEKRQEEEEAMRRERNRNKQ
Description: The HTRF-based assay was employed to evaluate the selectivity of the series against other DF proteins.
A dose–response experiment on DF1 and DF3 was conducted for compounds 17, 18, 23, and 27 (Figure S5). Compounds 17, 18, and 27 are active on three DF proteins. […] In contrast, compound 23 is selective for DF2, with residual signals (at the highest employed concentration of 62.5 μM) of 51 and 87% for DF1 and DF3, respectively.
GST-YTHDC1, GST-YTHDF1, GST-YTHDF2, and GST-YTHDF3 were purified as previously reported. The HTRF assay was assembled as detailed in ref with the only difference being that the starting concentration of the dose–response experiments used for the IC50 determination was variated dependently from the tested compound. The same protocol was applied to the four proteins. The competitive inhibition data of GST-YTHDF1 (single dose experiment at 100 μM compound concentration and dose–response curves), GST-YTHDF3 (single dose experiment at 100 μM compound concentration and dose–response curves), and GST-YTHDF2 (single dose experiment at 100 μM compound concentration) were normalized as described in ref to mitigate interference. The signal was measured as described in ref .

## O=c1[nH]c(=S)[nH]c2sccc12 [Compound 14]
YTHDC2
  Kd: 88 µM
  Selectivity DF2 over DC2 (Kd ratio DC2/DF2): ~20 fold
GST-YTHDF2
  Single-dose residual signal at 100 µM, DF2: 8%
  LE (ligand efficiency, DF2): 0.60 kcal/(mol HAC)
  IC50: 18 µM
GST-YTHDF3; HTRF
  Single-dose residual signal at 100 µM, DF3: 23%

## COC(=O)c1ccc(-c2csc3[nH]c(=S)[nH]c(=O)c23)cc1 [Compound 17]
YTHDC2
  Kd: 6.3 µM
GST-YTHDF2
  Improvement of HTRF IC50 compared to fragment 14: 3 fold
  Single-dose residual signal at 100 µM, DF2: 4%
  LE (ligand efficiency, DF2): 0.35 kcal/(mol HAC)
  IC50: 4.7 µM
GST-YTHDF3; HTRF
  Single-dose residual signal at 100 µM, DF3: 7%
GST-YTHDF3
  IC50: 21 µM

## O=C(O)c1ccc(-c2csc3[nH]c(=S)[nH]c(=O)c23)cc1 [Compound 18]
YTHDC2
  Kd: 7.7 µM
GST-YTHDF2
  Improvement of HTRF IC50 compared to fragment 14: 3 fold
  Single-dose residual signal at 100 µM, DF2: 4%
  LE (ligand efficiency, DF2): 0.36 kcal/(mol HAC)
  IC50: 5.4 µM
GST-YTHDF3; HTRF
  Single-dose residual signal at 100 µM, DF3: 19%
GST-YTHDF3
  IC50: 53 µM

## O=c1[nH]c(=S)[nH]c2scc(-c3ccc(O)cc3)c12 [Compound 19]
YTHDC2
  Kd: 40 µM
GST-YTHDF2
  Single-dose residual signal at 100 µM, DF2: 5%
  LE (ligand efficiency, DF2): 0.34 kcal/(mol HAC)
  IC50: 32 µM
GST-YTHDF3; HTRF
  Single-dose residual signal at 100 µM, DF3: 13%

## CC(=O)c1sc2[nH]c(=S)[nH]c(=O)c2c1C [Compound 20]
YTHDC2
  Kd: 46 µM
GST-YTHDF2
  Single-dose residual signal at 100 µM, DF2: 3%
  LE (ligand efficiency, DF2): 0.45 kcal/(mol HAC)
  IC50: 13 µM
GST-YTHDF3; HTRF
  Single-dose residual signal at 100 µM, DF3: 12%

## CCOC(=O)c1sc2[nH]c(=S)[nH]c(=O)c2c1C [Compound 21]
YTHDC2
  Kd: 230 µM
GST-YTHDF2
  Single-dose residual signal at 100 µM, DF2: 5%
  LE (ligand efficiency, DF2): 0.42 kcal/(mol HAC)
  IC50: 6.3 µM
GST-YTHDF3; HTRF
  Single-dose residual signal at 100 µM, DF3: 10%

## Cc1c(C(=O)NCc2ccccc2)sc2[nH]c(=S)[nH]c(=O)c12 [Compound 22]
YTHDC2
  Kd: 270 µM
GST-YTHDF2
  Single-dose residual signal at 100 µM, DF2: 5%
  LE (ligand efficiency, DF2): 0.31 kcal/(mol HAC)
  IC50: 10 µM
GST-YTHDF3; HTRF
  Single-dose residual signal at 100 µM, DF3: 18%

## Cc1c(C(=O)NCc2cccnc2)sc2[nH]c(=S)[nH]c(=O)c12 [Compound 23]
YTHDC2
  Kd: > 400 µM and 450 µM
  Selectivity DF2 over DC2 (Kd ratio DC2/DF2): about 350 fold
GST-YTHDF2; HTRF IC50 values
  Potency for DF2 relative to 6-cyclopropyluracil: 15 factor
GST-YTHDF2
  Single-dose residual signal at 100 µM, DF2: 9%
  LE (ligand efficiency, DF2): 0.31 kcal/(mol HAC)
  IC50: 11 µM
GST-YTHDF3; HTRF, 62.5 μM compound
  Residual signal DF3 at highest concentration: 87%
GST-YTHDF3; HTRF
  Single-dose residual signal at 100 µM, DF3: 33%
GST-YTHDF3
  IC50: > 60 µM

## Cc1c(C(=O)NCc2cccc(C(=O)O)c2)sc2[nH]c(=S)[nH]c(=O)c12 [Compound 24]
YTHDC2
  Kd: 41 µM
GST-YTHDF2
  Single-dose residual signal at 100 µM, DF2: 3%
  LE (ligand efficiency, DF2): 0.26 kcal/(mol HAC)
  IC50: 20 µM
GST-YTHDF3; HTRF
  Single-dose residual signal at 100 µM, DF3: 12%

## Cc1c(C(=O)NCCCC(=O)O)sc2[nH]c(=S)[nH]c(=O)c12 [Compound 25]
YTHDC2
  Kd: 130 µM
GST-YTHDF2
  Single-dose residual signal at 100 µM, DF2: 7%
  LE (ligand efficiency, DF2): 0.32 kcal/(mol HAC)
  IC50: 14 µM
GST-YTHDF3; HTRF
  Single-dose residual signal at 100 µM, DF3: 26%

## Cc1c(-c2ccc([N+](=O)[O-])cc2)sc2[nH]c(=S)[nH]c(=O)c12 [Compound 26]
YTHDC2
  Kd: 35 µM
GST-YTHDF2
  Improvement of HTRF IC50 compared to fragment 14: 3- to 4 fold
  Single-dose residual signal at 100 µM, DF2: 7%
  LE (ligand efficiency, DF2): 0.35 kcal/(mol HAC)
  IC50: 4.9 µM
GST-YTHDF3; HTRF
  Single-dose residual signal at 100 µM, DF3: 15%

## Cc1c(-c2ccc(N)cc2)sc2[nH]c(=S)[nH]c(=O)c12 [Compound 27]
YTHDC2
  Kd: 30 µM
GST-YTHDF2
  Improvement of HTRF IC50 compared to fragment 14: 3- to 4 fold
  Single-dose residual signal at 100 µM, DF2: 0%
  LE (ligand efficiency, DF2): 0.39 kcal/(mol HAC)
  IC50: 3.9 µM
GST-YTHDF3; HTRF
  Single-dose residual signal at 100 µM, DF3: 5%
GST-YTHDF3
  IC50: 50 µM

## NC(=O)c1csc2[nH]c(=S)[nH]c(=O)c12 [Compound 31]
YTHDC2
  Kd: 18 µM
GST-YTHDF2
  Single-dose residual signal at 100 µM, DF2: 13%
  LE (ligand efficiency, DF2): 0.47 kcal/(mol HAC)
  IC50: 14 µM
GST-YTHDF3; HTRF
  Single-dose residual signal at 100 µM, DF3: 36%

## O=c1[nH]c(=S)[nH]c2scc(-c3ccc(Br)cc3)c12 [Compound S75]
YTHDC2
  Kd: 37 µM
GST-YTHDF2
  Single-dose residual signal at 100 µM, DF2: 4%
  IC50: 27 µM
GST-YTHDF3; HTRF
  Single-dose residual signal at 100 µM, DF3: 8%
